Results published in article PMC4145680 (mBio, 2014).

Target: E. coli SQR (pFAS, SdhABCD^+) (Escherichia coli, UniProt P0AC41)
Assay: PES-DCIP assay and Clark O2 electrode, IMVs
Format: biochemical
Settings: pH 7.5 (50 mM MOPS)

E. coli SQR (pFAS, SdhABCD^+), sequence (P0AC41 whole entry): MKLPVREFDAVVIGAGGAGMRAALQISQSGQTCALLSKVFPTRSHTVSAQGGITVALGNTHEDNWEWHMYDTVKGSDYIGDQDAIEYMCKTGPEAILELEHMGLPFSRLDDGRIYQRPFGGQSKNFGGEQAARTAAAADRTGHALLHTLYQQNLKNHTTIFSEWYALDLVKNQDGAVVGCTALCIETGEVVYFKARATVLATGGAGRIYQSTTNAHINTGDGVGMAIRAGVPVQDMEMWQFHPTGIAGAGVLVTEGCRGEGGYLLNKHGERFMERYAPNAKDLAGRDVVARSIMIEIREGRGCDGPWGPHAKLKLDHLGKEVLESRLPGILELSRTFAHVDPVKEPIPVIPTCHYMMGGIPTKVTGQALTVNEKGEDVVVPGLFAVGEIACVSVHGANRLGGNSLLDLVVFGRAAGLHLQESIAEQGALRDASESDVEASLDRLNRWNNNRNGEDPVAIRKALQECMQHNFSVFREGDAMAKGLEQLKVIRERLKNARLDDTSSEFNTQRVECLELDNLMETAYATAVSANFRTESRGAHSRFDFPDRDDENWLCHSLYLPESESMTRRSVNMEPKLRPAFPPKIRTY
E. coli SQR (pFAS, SdhABCD^+), sequence (P07014 whole entry partner): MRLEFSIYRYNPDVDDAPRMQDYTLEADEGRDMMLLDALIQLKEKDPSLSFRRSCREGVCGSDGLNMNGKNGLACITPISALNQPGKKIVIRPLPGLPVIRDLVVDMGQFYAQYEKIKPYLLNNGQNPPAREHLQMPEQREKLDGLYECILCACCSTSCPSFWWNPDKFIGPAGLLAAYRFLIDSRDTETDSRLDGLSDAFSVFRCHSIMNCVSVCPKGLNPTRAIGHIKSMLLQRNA
E. coli SQR (pFAS, SdhABCD^+), sequence (P69054 whole entry partner): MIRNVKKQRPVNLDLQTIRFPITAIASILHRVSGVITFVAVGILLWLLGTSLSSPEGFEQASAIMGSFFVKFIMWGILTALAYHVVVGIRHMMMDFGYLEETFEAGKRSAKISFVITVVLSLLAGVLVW
E. coli SQR (pFAS, SdhABCD^+), sequence (P0AC44 whole entry partner): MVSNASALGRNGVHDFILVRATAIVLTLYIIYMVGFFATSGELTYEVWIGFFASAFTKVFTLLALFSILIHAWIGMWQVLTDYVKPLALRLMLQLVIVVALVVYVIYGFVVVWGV

O=C(O)CCC(=O)O [succinate]
PES-DCIP assay and Clark O2 electrode, IMVs: E. coli strains overexpressing either the SQR operon (pFAS, SdhABCD^+)
